Measurements: patent publication US20220144815A1, “1,3,4-OXADIAZOLES AND THEIR DERIVATIVES AS NEW ANTIFUNGAL AGENTS” (Bayer Aktiengesellschaft, priority 2018, published 2022)
Like-named read-outs stand apart in the source and are kept apart here.

Tests used:
Puccinia recondita = experiment: Example D: in vivo preventive test (brown rust on wheat); conditions: 264 h, 500 ppm of tested compound, preventive spray, evaluated 11 days after inoculation, read-out: efficacy
Method: Solvent: 5% by volume of dimethyl sulfoxide • 10% by volume of acetone Emulsifier: 1 μL of Tween® 80 per mg of active ingredient The tested compounds were made soluble and homogenized in a mixture of dimethyl sulfoxide/acetone/Tween® 80 and then diluted in water to the desired concentration. The young plants of wheat were treated by spraying the tested compound prepared as described above. Control plants were treated only with an aqueous solution of acetone/dimethyl sulfoxide/Tween® 80. After 24 hours, the plants were contaminated by spraying the leaves with an aqueous suspension of Puccinia recondita spores. The contaminated wheat plants were incubated for 24 hours at 20° C. and at 100% relative humidity and then for 10 days at 20° C. and at 70-80% relative humidity. The test was evaluated 11 days after the inoculation. 0% means an efficacy which corresponds to that of the control plants while an efficacy of 100% means that no disease was observed.

[1] = Log P by HPLC on reversed phase columns, method [a] (EEC directive 79/831 Annex V.A8); format: physicochemical; conditions: reversed phase HPLC column, read-out: logP
Outline: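 Log P calibrated with C3–C16 straight-chain alkan-2-ones of known Log P, interpolating linearly between retention times. Method per EEC 79/831 Annex V.A8: reversed-phase LC-UV in the acidic range, water/0.1% formic acid and acetonitrile gradient from 10% to 95% acetonitrile.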

Phakopsora pachyrhizi = experiment: Example F: in vivo preventive test (soybeans), DMSO/acetone/Tween 80; conditions: 288 h, 500 ppm of tested compound, preventive spray, soybean, evaluated 12 days after inoculation, read-out: efficacy
Method: Solvent: 5% by volume of dimethyl sulfoxide • 10% by volume of acetone
Emulsifier: 1 μL of Tween® 80 per mg of active ingredient
The tested compounds were made soluble and homogenized in a mixture of dimethyl sulfoxide/acetone/Tween® 80 and then diluted in water to the desired concentration.
The young plants of wheat were treated by spraying the tested compound prepared as described above. Control plants were treated only with an aqueous solution of acetone/dimethyl sulfoxide/Tween® 80.
After 24 hours, the plants were contaminated by spraying the leaves with an aqueous suspension of Phakospora pachyrhizi spores. The contaminated soybean plants were incubated for 24 hours at 24° C. and at 100% relative humidity and then for 11 days at 24° C. and at 70-80% relative humidity.
The test was evaluated 12 days after the inoculation. 0% means an efficacy which corresponds to that of the control plants while an efficacy of 100% means that no disease was observed.

Alternaria brassicae = experiment: Example E: in vivo preventive test (cabbage); conditions: 144 h, 500 ppm of tested compound, preventive spray, evaluated 6 days after inoculation, read-out: efficacy
Method: Solvent: 5% by volume of dimethyl sulfoxide • 10% by volume of acetone Emulsifier: 1 μL of Tween® 80 per mg of active ingredient The tested compounds were made soluble and homogenized in a mixture of Dimethyl sulfoxide/Acetone/Tween® 80 and then diluted in water to the desired concentration. The young plants of cabbage were treated by spraying the tested compound prepared as described above. Control plants were treated only with an aqueous solution of Acetone/Dimethyl sulfoxide/Tween® 80. After 24 hours, the plants were contaminated by spraying the leaves with an aqueous suspension of Alternaria brassicae spores. The contaminated cabbage plants were incubated for 6 days at 20° C. and at 100% relative humidity. The test was evaluated 6 days after the inoculation. 0% means an efficacy which corresponds to that of the control plants while an efficacy of 100% means that no disease was observed.

[2] = tested on: Colletotrichum lindemuthianum; experiment: Example B: in vitro cell test, spore germination and mycelium growth in liquid culture; format: cell-based; conditions: 144 h, 20 ppm of tested compound, 6 days incubation, read-out: efficacy (inhibition of fungal growth)
Method: • Solvent: dimethyl sulfoxide Culture medium: 14.6 g anhydrous D-glucose (VWR), • 7.1 g mycological peptone (Oxoid), • 1.4 g granulated yeast extract (Merck), QSP 1 liter Inoculum: spore suspension The tested compounds were solubilized in dimethyl sulfoxide and the solution used to prepare the required range of concentrations. The final concentration of dimethyl sulfoxide used in the assay was ≤1%. A spore suspension of Colletotrichum lindemuthianum was prepared and diluted to the desired spore density. The compounds were evaluated for their ability to inhibit spore germination and mycelium growth in liquid culture assay. The compounds were added in the desired concentration to the culture medium with spores. After 6 days incubation, fungi-toxicity of compounds was determined by spectrometric measurement of mycelium growth. Inhibition of fungal growth was determined by comparing the absorbance values in wells containing the tested compounds with the absorbance in control wells without tested compounds.

[3] = log P determined according to method [a] (HPLC on reversed phase columns)
[4] = method [a], HPLC on reversed phase columns

Compound | pest or weed control at 500 µg/mL (Puccinia recondita) [%] | chromatographic logP [1, 3] | pest or weed control at 500 µg/mL (Phakopsora pachyrhizi) [%] | pest or weed control at 500 µg/mL (Alternaria brassicae) [%] | inhibition of growth at 20 µg/mL [2] [%] | chromatographic logP [1, 4]
CN(C(=O)c1ccc(-c2nnc(C(F)(F)F)o2)cc1)c1ccccc1 [I.026, N-methyl-N-phenyl-4-[5-(trifluoromethyl)-1,3,4-oxadiazol-2-yl]benzamide] | 80 to 89 | – | – | – | – | –
CC(Oc1ncc(-c2nnc(C(F)F)o2)cn1)c1ccc(F)cc1 (racemic) [I.127, 5-[5-(difluoromethyl)-1,3,4-oxadiazol-2-yl]-2-{[(1RS)-1-(4-fluorophenyl)ethyl]oxy}pyrimidine] | 70 to 79 | 3.13 | 90 to 100 | – | – | –
FC(F)c1nnc(-c2cnc(NC3(c4ccccn4)CC3)nc2)o1 [I.121, 5-[5-(difluoromethyl)-1,3,4-oxadiazol-2-yl]-N-[1-(pyridin-2-yl)cyclopropyl]pyrimidin-2-amine] | 70 to 79 | 0.93 | 90 to 100 | – | – | –
CON(c1ncc(-c2nnc(C(F)F)o2)cn1)C(C)c1ccccc1 (racemic) [I.147, N-{5-[5-(difluoromethyl)-1,3,4-oxadiazol-2-yl]pyrimidin-2-yl}-O-methyl-N-[(1RS)-1-phenylethyl]hydroxylamine] | – | 3.37 | 80 to 89 | 90 to 100 | – | –
FC(F)c1nnc(-c2cnc(OC3(c4ccccc4)CC3)nc2)o1 [I.120, 5-[5-(difluoromethyl)-1,3,4-oxadiazol-2-yl]-2-[(1-phenylcyclopropyl)oxy]pyrimidine] | 70 to 79 | 2.95 | 90 to 100 | – | 70 to 79 | –
COc1ccccc1C1(Nc2ncc(-c3nnc(C(F)F)o3)cn2)CC1 [I.155, 5-[5-(difluoromethyl)-1,3,4-oxadiazol-2-yl]-N-[1-(2-methoxyphenyl)cyclopropyl]pyrimidin-2-amine] | 80 to 89 | 3.06 | 90 to 100 | – | – | –
FC(F)c1nnc(-c2cnc(NC(c3ccccc3)C3CC3)nc2)o1 (racemic) [I.136, N—[(RS)-cyclopropyl(phenyl)methyl]-5-[5-(difluoromethyl)-1,3,4-oxadiazol-2-yl]pyrimidin-2-amine] | 80 to 89 | 3.14 | 90 to 100 | – | 80 to 89 | –
CC(Nc1ncc(-c2nnc(C(F)F)o2)cn1)c1ccc(F)cc1 (racemic) [I.125, 5-[5-(difluoromethyl)-1,3,4-oxadiazol-2-yl]-N-[(1RS)-1-(4-fluorophenyl)ethyl]pyrimidin-2-amine] | 90 to 100 | 2.89 | 90 to 100 | – | 80 to 89 | –
Fc1ccccc1Nc1ncc(-c2nnc(C(F)F)o2)cn1 [I.093, 5-[5-(difluoromethyl)-1,3,4-oxadiazol-2-yl]-N-(2-fluorophenyl)pyrimidin-2-amine] | 90 to 100 | – | 90 to 100 | – | – | –
Fc1ccccc1C1(Nc2ncc(-c3nnc(C(F)(F)F)o3)cn2)CC1 [I.165, N-[1-(2-fluorophenyl)cyclopropyl]-5-[5-(trifluoromethyl)-1,3,4-oxadiazol-2-yl]pyrimidin-2-amine] | 90 to 100 | 3.47 | 90 to 100 | – | 80 to 89 | –
CN(Nc1ncc(-c2nnc(C(F)F)o2)cn1)c1ccccc1 [I.108, 5-[5-(difluoromethyl)-1,3,4-oxadiazol-2-yl]-2-(2-methyl-2-phenylhydrazino)pyrimidine] | 70 to 79 | 2.23 | – | – | – | –
ON(Cc1ccccc1)c1ncc(-c2nnc(C(F)F)o2)cn1 [I.110, N-benzyl-5-[5-(difluoromethyl)-1,3,4-oxadiazol-2-yl]-N-hydroxypyrimidin-2-amine] | – | 2.23 | 90 to 100 | 90 to 100 | 90 to 100 | –
Fc1ccccc1Nc1ncc(-c2nnc(C(F)(F)Cl)o2)cn1 [I.131, 5-{5-[chloro(difluoro)methyl]-1,3,4-oxadiazol-2-yl}-N-(2-fluorophenyl)pyrimidin-2-amine] | – | 3.26 | – | 90 to 100 | 90 to 100 | –
Fc1ccccc1C1(Nc2ncc(-c3nnc(C(F)F)o3)cn2)CCCC1 [I.171, 5-[5-(difluoromethyl)-1,3,4-oxadiazol-2-yl]-N-[1-(2-fluorophenyl)cyclopentyl]pyrimidin-2-amine] | – | – | 70 to 79 | 80 to 89 | 70 to 79 | 3.74
Fc1cccc(C2(Nc3ncc(-c4nnc(C(F)F)o4)cn3)CCCC2)c1 [I.172, 5-[5-(difluoromethyl)-1,3,4-oxadiazol-2-yl]-N-[1-(3-fluorophenyl)cyclopentyl]pyrimidin-2-amine] | – | – | – | 80 to 89 | 70 to 79 | 3.6
CCC(Nc1ncc(-c2nnc(C(F)F)o2)cn1)c1ccccc1 (racemic) [I.122, 5-[5-(difluoromethyl)-1,3,4-oxadiazol-2-yl]-N-[(1RS)-1-phenylpropyl]pyrimidin-2-amine] | 90 to 100 | 3.16 | 90 to 100 | – | 90 to 100 | –
C#CC(Nc1ncc(-c2nnc(C(F)F)o2)cn1)c1ccccc1 (racemic) [I.118, 5-[5-(difluoromethyl)-1,3,4-oxadiazol-2-yl]-N-[(1RS)-1-phenylprop-2-yn-1-yl]pyrimidin-2-amine] | 80 to 89 | 2.86 | 90 to 100 | – | 90 to 100 | –
Cc1ccccc1C1(Nc2ncc(-c3nnc(C(F)F)o3)cn2)CC1 [I.132, 5-[5-(difluoromethyl)-1,3,4-oxadiazol-2-yl]-N-[1-(2-methylphenyl)cyclopropyl]pyrimidin-2-amine] | 80 to 89 | 3.23 | 90 to 100 | – | 70 to 79 | –
FC(F)c1nnc(-c2cnc(NC3(c4cccc(Cl)c4)CCC3)nc2)o1 [I.175, N-[1-(3-chlorophenyl)cyclobutyl]-5-[5-(difluoromethyl)-1,3,4-oxadiazol-2-yl]pyrimidin-2-amine] | 90 to 100 | – | – | 70 to 79 | 80 to 89 | 3.67
COC(=O)c1ccc(C2(Nc3ncc(-c4nnc(C(F)F)o4)cn3)CC2)cc1 [I.180, methyl 4-[1-({5-[5-(difluoromethyl)-1,3,4-oxadiazol-2-yl]pyrimidin-2-yl}amino)cyclopropyl]benzoate] | 70 to 79 | – | – | – | – | 2.51
Fc1cccc(C2(Nc3ncc(-c4nnc(C(F)F)o4)cn3)CC2)c1 [I.145, 5-[5-(difluoromethyl)-1,3,4-oxadiazol-2-yl]-N-[1-(3-fluorophenyl)cyclopropyl]pyrimidin-2-amine] | 90 to 100 | 2.72 | 90 to 100 | – | 80 to 89 | –
